{"source": "patent US9550739B2", "about": "“Molecules having certain pesticidal utilities, and intermediates, compositions, and processes related thereto” (priority 2014, dated 2017)", "assay_type_in_all_cases": "in vivo", "key": {"[1]": {"system": "Yellow Fever Mosquito (Aedes aegypti, AEDSAE) (\"YFM\")", "settings": "about 1 day-old larvae, 4000 ppm master solution diluted, 3 days, room temperature", "summary_of_the_method": "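Compounds from 4000 ppm DMSO master plates, diluted in 90:10 water:acetone, dispensed into 96-well plates, six replicates. About 1-day-old larvae added in liver-powder water. Wells covered, held 3 days at room temperature, then scored for mortality.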"}, "[2]": {"system": "Cabbage Looper (Trichoplusia ni, TRIPNI) (\"CL\")", "assay": "Bioassays on Cabbage Looper (CL), 128-well diet tray assay", "settings": "Trichoplusia ni, 168 h, read-out: CL % Control (or Mortality) rating", "summary_of_the_method": "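Second instar larvae (one to five per well) placed on artificial diet treated with 50 μg/cm^2 compound in acetone-water, eight wells per compound. Held at 25° C, 14:10 light-dark for five to seven days; percent mortality averaged across wells.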"}, "[3]": {"system": "Beet Armyworm (Spodoptera exigua, LAPHEG) (\"BAW\")", "assay": "Bioassays on Beet Armyworm (BAW), 128-well diet tray assay", "settings": "Spodoptera exigua, 168 h; second instar BAW larvae, 50 μg/cm^2 on artificial diet, five to seven days, 25° C.; read-out: BAW % Control (or Mortality) rating", "summary_of_the_method": "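Second-instar larvae, one to five per well, were placed on artificial diet surface-treated with 50 μg/cm^2 compound in 90:10 acetone-water and dried, eight wells per compound. Trays were held at 25° C, 14:10 light-dark, for five to seven days. Percent mortality per well was averaged over the eight wells.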"}, "[4]": {"system": "Green Peach Aphid (Myzus persicae, MYZUPE) (\"GPA\")", "assay": "Bioassays on Green Peach Aphid (GPA), cabbage seedling foliar spray", "settings": "72 h, 200 ppm foliar spray on cabbage seedlings, three days, Abbott corrected % control, read-out: GPA % Control (or Mortality) rating", "experimental": "Certain molecules disclosed in this document were tested against GPA using procedures described in the following example. In the reporting of the results, the “GPA Rating Table” was used (See Table Section).\nCabbage seedlings grown in 3-inch pots, with 2-3 small (3-5 cm) true leaves, were used as test substrate. The seedlings were infested with 20-50 GPA (wingless adult and nymph stages) one day prior to chemical application. Four pots with individual seedlings were used for each treatment. Test compounds (2 mg) were dissolved in 2 mL of acetone/methanol (1:1) solvent, forming stock solutions of 1000 ppm test compound. The stock solutions were diluted 5× with 0.025% Tween 20 in water to obtain the solution at 200 ppm test compound. A hand-held aspirator-type sprayer was used for spraying a solution to both sides of […] leaves until runoff. Reference plants (solvent check) were sprayed with the diluent only containing 20% by volume of acetone/methanol (1:1) solvent. Treated plants were held in a holding room for three days at approximately 25° C. and ambient relative humidity (RH) prior to grading. Evaluation was conducted by counting the number of live aphids per plant under a microscope. Percent Control was measured by using Abbott's correction formula (W. S. Abbott, “A Method of Computing the Effectiveness of an Insecticide” J. Econ. Entomol. 18 (1925), pp. 265-267) as follows. Corrected % Control=100*(X−Y)/X • where • X=No. of live aphids on solvent check plants and • Y=No. of live aphids on treated plants"}}}
{"smiles": "Cc1cccc(C)c1-c1cccc(C(=O)Nc2ccc(-c3ncn(-c4ccc(OC(F)(F)F)cc4)n3)cc2)c1", "note": "[F12, 2′,6′-Dimethyl-N-(4-(1-(4-(trifluoromethoxy)phenyl)-1H-1,2,4-triazol-3-yl)phenyl)-[1,1′-biphenyl]-3-carboxamide]", "values": [{"measurement": "YFM % Control (or Mortality) rating", "setting": "[1]", "result": "A (80-100)"}, {"measurement": "mortality at 50 µg/cm2", "setting": "[2]", "result": "50 to 100", "unit": "%"}, {"measurement": "mortality at 50 µg/cm2", "setting": "[3]", "result": "50 to 100", "unit": "%"}, {"measurement": "mortality at 200 ppm", "setting": "[4]", "result": "0 to 80", "unit": "%"}]}
{"smiles": "COc1ccccc1-c1cccc(C(=O)Nc2ccc(-c3ncn(-c4ccc(C(F)(F)F)cc4)n3)cc2)c1", "note": "[F60, 2′-Methoxy-N-(4-(1-(4-(trifluoromethyl)phenyl)-1H-1,2,4-triazol-3-yl)phenyl)-[1,1′-biphenyl]-3-carboxamide]", "values": [{"measurement": "YFM % Control (or Mortality) rating", "setting": "[1]", "result": "A (80-100)"}, {"measurement": "mortality at 50 µg/cm2", "setting": "[2]", "result": "50 to 100", "unit": "%"}, {"measurement": "mortality at 50 µg/cm2", "setting": "[3]", "result": "50 to 100", "unit": "%"}, {"measurement": "mortality at 200 ppm", "setting": "[4]", "result": "0 to 80", "unit": "%"}]}
{"smiles": "O=C(Nc1ccc(-c2ncn(-c3ccc(C(F)(F)F)cc3)n2)cc1)c1ccc(F)c(-c2ccccc2F)c1", "note": "[F59, 2′,6-Difluoro-N-(4-(1-(4-(trifluoromethyl)phenyl)-1H-1,2,4-triazol-3-yl)phenyl)-[1,1′-biphenyl]-3-carboxamide]", "values": [{"measurement": "YFM % Control (or Mortality) rating", "setting": "[1]", "result": "A (80-100)"}, {"measurement": "mortality at 50 µg/cm2", "setting": "[2]", "result": "50 to 100", "unit": "%"}, {"measurement": "mortality at 50 µg/cm2", "setting": "[3]", "result": "50 to 100", "unit": "%"}, {"measurement": "mortality at 200 ppm", "setting": "[4]", "result": 0, "unit": "%"}]}
{"smiles": "Cc1c(C(=O)Nc2ccc(-c3ncn(-c4ccc(OC(F)(F)F)cc4)n3)cc2)cccc1-c1ccccc1", "note": "[F14, 2-Methyl-N-(4-(1-(4-(trifluoromethoxy)phenyl)-1H-1,2,4-triazol-3-yl)phenyl)-[1,1′-biphenyl]-3-carboxamide]", "values": [{"measurement": "YFM % Control (or Mortality) rating", "setting": "[1]", "result": "D (No activity noticed in this bioassay)"}, {"measurement": "mortality at 50 µg/cm2", "setting": "[2]", "result": "50 to 100", "unit": "%"}, {"measurement": "mortality at 50 µg/cm2", "setting": "[3]", "result": "50 to 100", "unit": "%"}, {"measurement": "mortality at 200 ppm", "setting": "[4]", "result": "0 to 80", "unit": "%"}]}
{"smiles": "O=C(Nc1ccc(-c2ncn(-c3ccc(OC(F)(F)F)cc3)n2)cc1)c1cccc(-c2ccccc2)c1", "note": "[F24, N-(4-(1-(4-(trifluoromethoxy)phenyl)-1H-1,2,4-triazol-3-yl)phenyl)-[1,1′-biphenyl]-3-carboxamide]", "values": [{"measurement": "YFM % Control (or Mortality) rating", "setting": "[1]", "result": "D (No activity noticed in this bioassay)"}, {"measurement": "mortality at 50 µg/cm2", "setting": "[2]", "result": "50 to 100", "unit": "%"}, {"measurement": "mortality at 50 µg/cm2", "setting": "[3]", "result": "50 to 100", "unit": "%"}, {"measurement": "mortality at 200 ppm", "setting": "[4]", "result": "0 to 80", "unit": "%"}]}
{"smiles": "CCOc1ccccc1-c1cccc(C(=O)Nc2ccc(-c3ncn(-c4ccc(OC(F)(F)F)cc4)n3)cc2)c1", "note": "[F38, 2′-Ethoxy-N-(4-(1-(4-(trifluoromethoxy)phenyl)-1H-1,2,4-triazol-3-yl)phenyl)-[1,1′-biphenyl]-3-carboxamide]", "values": [{"measurement": "YFM % Control (or Mortality) rating", "setting": "[1]", "result": "A (80-100)"}, {"measurement": "mortality at 50 µg/cm2", "setting": "[2]", "result": "50 to 100", "unit": "%"}, {"measurement": "mortality at 50 µg/cm2", "setting": "[3]", "result": "50 to 100", "unit": "%"}, {"measurement": "mortality at 200 ppm", "setting": "[4]", "result": "0 to 80", "unit": "%"}]}
{"smiles": "CCc1ccccc1-c1cccc(C(=O)Nc2ccc(-c3ncn(-c4ccc(OC(F)(F)F)cc4)n3)cc2)c1", "note": "[F8, 2′-Ethyl-N-(4-(1-(4-(trifluoromethoxy)phenyl)-1H-1,2,4-triazol-3-yl)phenyl)-[1,1′-biphenyl]-3-carboxamide]", "values": [{"measurement": "YFM % Control (or Mortality) rating", "setting": "[1]", "result": "B (More than 0-Less than 80)"}, {"measurement": "mortality at 50 µg/cm2", "setting": "[2]", "result": "50 to 100", "unit": "%"}, {"measurement": "mortality at 50 µg/cm2", "setting": "[3]", "result": "50 to 100", "unit": "%"}, {"measurement": "mortality at 200 ppm", "setting": "[4]", "result": "0 to 80", "unit": "%"}]}
{"smiles": "O=C(NCCc1ccc(-c2ncn(-c3ccc(OC(F)(F)F)cc3)n2)cc1)c1ccc(F)c(-c2ccccc2F)c1", "note": "[F55, 2′,6-Difluoro-N-(4-(1-(4-(trifluoromethoxy)phenyl)-1H-1,2,4-triazol-3-yl)phenethyl)-[1,1′-biphenyl]-3-carboxamide]", "values": [{"measurement": "YFM % Control (or Mortality) rating", "setting": "[1]", "result": "D (No activity noticed in this bioassay)"}, {"measurement": "mortality at 50 µg/cm2", "setting": "[2]", "result": "50 to 100", "unit": "%"}, {"measurement": "mortality at 50 µg/cm2", "setting": "[3]", "result": "50 to 100", "unit": "%"}, {"measurement": "mortality at 200 ppm", "setting": "[4]", "result": "0 to 80", "unit": "%"}]}
